Columns and labels:
[1] = target: T1, STK3 (Homo sapiens (Human), UniProt Q13188); test: ADP-Glo kinase assay, STK3; type: biochemical; conditions: ADP-Glo, 50 μM ATP; read-out: STK3 IC50
Summary of the method: (§1)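 Full-length recombinant human STK3 (50 ng) phosphorylated 250 μg/mL myelin basic protein, and full-length STK4 (50 ng) phosphorylated 300 μg/mL Axltide, both at 50 μM ATP; ADP formed detected by ADP-Glo. Three experiments, each in triplicate.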

[2] = target: T2, STK4 (Homo sapiens (Human), UniProt Q13043); test: NanoBRET intracellular kinase assay, STK4; type: cell-based; conditions: transfected HEK293 cells, 2 h
T2 sequence (Q13043 whole entry, the tested form may be a part): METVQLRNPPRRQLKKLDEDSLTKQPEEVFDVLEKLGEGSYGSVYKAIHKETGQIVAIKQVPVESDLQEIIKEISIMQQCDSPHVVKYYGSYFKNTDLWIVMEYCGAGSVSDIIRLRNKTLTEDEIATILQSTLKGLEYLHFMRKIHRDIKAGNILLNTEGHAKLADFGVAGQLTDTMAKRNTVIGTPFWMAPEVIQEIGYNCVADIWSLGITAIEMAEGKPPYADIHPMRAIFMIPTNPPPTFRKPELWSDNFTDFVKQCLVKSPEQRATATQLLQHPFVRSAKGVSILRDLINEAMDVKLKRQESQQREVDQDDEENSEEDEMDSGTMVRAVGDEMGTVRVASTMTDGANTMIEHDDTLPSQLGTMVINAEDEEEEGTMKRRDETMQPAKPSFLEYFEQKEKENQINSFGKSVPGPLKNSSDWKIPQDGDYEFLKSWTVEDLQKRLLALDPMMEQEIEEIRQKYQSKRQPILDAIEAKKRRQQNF
Procedure: Full-length STK3, STK4, and LRRK2 kinase was cloned in-frame with a C-terminal NanoLuc-fusion (Promega: Madison, WI, USA) and the plasmid was transfected into HEK293T cells using FuGENE HD (Promega, E2312). […] After 2 h at 37° C. in a 5% CO2 atmosphere, NanoBRET NanoGlo Substrate+Extra-cellular NanoLuc Inhibitor (Promega, N2540) was added, and filtered luminescence was measured on a PHERAstar plate reader (BMG Labtech; Ortenberg, Germany) equipped with a lumi-nescence filter pair (450 nm BP filter (donor) and 610 nm LP filter (acceptor)).
This assay measured the apparent affinity of test compounds by competitive displacement of the NanoBRET™ tracer, reversibly bound to a NanoLuc® luciferase-kinase fusion in cells. To evaluate potential off-target activity of the inhibitors, the inhibition of LRRK2 in live cells by the STK3/4 inhibitors compounds described herein were measured. […] A 50 nM tracer and these compounds were added to cells and incubated for 2 h.

[3] = target: T2, STK4; test: ADP-Glo kinase assay, STK4; type: biochemical; conditions: ADP-Glo, 50 μM ATP; read-out: STK4 IC50
Summary of the method: as §1

[4] = target: kinase domain of STK4 (Homo sapiens (Human), UniProt Q13043); test: Isothermal titration calorimetry (ITC), STK4; type: binding; conditions: 25° C
Sequence of kinase domain of STK4 (Q13043 30-281): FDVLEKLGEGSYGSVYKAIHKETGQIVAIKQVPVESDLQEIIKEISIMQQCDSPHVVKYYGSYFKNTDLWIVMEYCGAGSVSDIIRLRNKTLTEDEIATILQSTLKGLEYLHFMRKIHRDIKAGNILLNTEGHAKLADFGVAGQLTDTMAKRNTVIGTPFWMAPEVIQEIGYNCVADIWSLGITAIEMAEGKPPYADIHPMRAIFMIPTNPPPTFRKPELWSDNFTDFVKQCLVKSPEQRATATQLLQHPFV
Procedure: (§2) All ITC experiments were performed using NanoITC (TA Instruments: New Castle, DE, USA) at 25° C. in a buffer containing 20 mM Tris pH 7.5, 150 mM NaCl, and 0.5 mM TCEP. […] For this protocol the chamber was pre-equilibrated with the test compound, and the kinase domain of STK3 or STK4 was titrated in while continuously measuring the rate of exothermic heat evolution. The heat of binding was integrated, corrected, and fitted to an independent single-binding site model based on the manufacturer's protocol, from which thermodynamic parameters (ΔH and TΔS), equilibrium association and dissociation constants (Ka and KD), and stoichiometry (n) were calculated.
(§3) Isothermal titration calorimetry (ITC) was used to determine the thermodynamic properties of the compounds.

[5] = target: T2, STK4; test: PhosphoSens CSox-based Sensor Assay, STK4; type: biochemical; conditions: Km ATP, mean n = 2
Procedure: (§4) Materials were obtained and prepared according to the assay manufacturer's protocol (Assay Quant Technologies: Marlborough, MA, USA). The 50 μL reaction was initiated by addition of a master mix containing the compounds or vehicle, kinase, and CSox-peptide substrate to a well containing the remaining components. […] Final concentrations were: […] HEPES pH 7.5, 50 μM ATP, 1.0 mM DTT, 0.01% Brij-35, 0.5 mM EGTA, 10 mM MgCl2, 10 μM peptide substrate (AQT0135), and 5.0 nM STK3 (SignalChem #S24-10G) or STK4 (SignalChem #S25-10G) kinases. […] Background-corrected RFU were plotted against time using Prism 8 software. Velocity determinations were calculated for each reaction and plotted versus compound concentration to generate inhibitor curves.
(§5) The PhosphoSens® CSox-based Sensor real-time kinetic assay uses a peptide substrate containing an unnatural amino acid and physiological Mg^2+ levels to quantify substrate phosphorylation using fluorescence.

[6] = target: T1, STK3; test: PhosphoSens CSox-based Sensor Assay, STK3; type: biochemical; conditions: Km ATP, mean n = 2
Procedure: as §4, §5

[7] = target: kinase domain of STK3 (Homo sapiens (Human), UniProt Q13188); test: Isothermal titration calorimetry (ITC), STK3; type: binding; conditions: 25° C
Sequence of kinase domain of STK3 (Q13188 27-278): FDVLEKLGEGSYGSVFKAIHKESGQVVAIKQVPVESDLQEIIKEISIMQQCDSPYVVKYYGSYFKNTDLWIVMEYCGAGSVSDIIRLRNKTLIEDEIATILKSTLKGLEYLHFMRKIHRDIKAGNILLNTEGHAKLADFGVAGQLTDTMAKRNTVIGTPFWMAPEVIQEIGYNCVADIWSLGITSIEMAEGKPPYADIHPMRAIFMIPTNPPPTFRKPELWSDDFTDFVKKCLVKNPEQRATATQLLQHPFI
Procedure: as §2, §3

T1 sequence (Q13188 whole entry): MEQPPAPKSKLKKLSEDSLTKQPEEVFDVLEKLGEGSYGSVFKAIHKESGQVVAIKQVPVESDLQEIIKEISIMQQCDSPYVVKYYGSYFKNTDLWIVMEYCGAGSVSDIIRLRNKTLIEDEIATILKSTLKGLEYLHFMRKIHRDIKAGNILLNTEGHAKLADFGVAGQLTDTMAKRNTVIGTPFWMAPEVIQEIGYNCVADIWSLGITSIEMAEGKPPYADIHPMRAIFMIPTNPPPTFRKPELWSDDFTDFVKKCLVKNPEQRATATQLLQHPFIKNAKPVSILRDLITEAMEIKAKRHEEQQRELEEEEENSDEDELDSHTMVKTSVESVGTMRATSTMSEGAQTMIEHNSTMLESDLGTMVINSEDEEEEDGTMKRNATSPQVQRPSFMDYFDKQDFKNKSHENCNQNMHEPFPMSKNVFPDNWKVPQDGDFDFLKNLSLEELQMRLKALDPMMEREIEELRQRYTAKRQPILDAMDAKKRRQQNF

| Structure (SMILES) | IC50 [1] | IC50 [2] | IC50 [3] | ITC-KD, STK4 [4] | Ki [5] | Ki [6] | ITC-KD, STK3 [7] |
| --- | --- | --- | --- | --- | --- | --- | --- |
| OC1CCN(c2ncnc3[nH]cc(-c4cccc(Cl)c4)c23)CC1 [Compound 16, 1-(5-(3-Chlorophenyl)-7H-pyrrolo[2,3-d]pyrimidin-4-yl)piperidin-4-ol] | < 1000 nM | < 1000 nM | < 1000 nM | – | – | – | – |
| Clc1cccc(-c2c[nH]c3ncnc(N4CCOCC4)c23)c1 [Compound 6, 4-(5-(3-Chlorophenyl)-7H-pyrrolo[2,3-d]pyrimidin-4-yl)morpholine] | – | < 1000 nM | < 1000 nM | low nanomolar affinities | 52 nM | – | – |
| CC(=O)NC1CCN(c2ncnc3[nH]cc(-c4cccc(Cl)c4)c23)CC1 [Compound 105, N-(1-(5-(3-chlorophenyl)-7H-pyrrolo[2,3-d]pyrimidin-4-yl)piperidin-4-yl)acetamide] | < 1000 nM | < 1000 nM | < 1000 nM | – | – | – | – |
| NC(=O)c1cccc(-c2c[nH]c3ncnc(N4CCOCC4)c23)c1 [Compound 11, 3-(4-Morpholino-7H-pyrrolo[2,3-d]pyrimidin-5-yl)benzamide] | < 1000 nM | – | – | – | – | 145 nM | – |
| Clc1cccc(-c2c[nH]c3nccc(N4CCOCC4)c23)c1 [Compound 23, 4-(3-(3-chlorophenyl)-1H-pyrrolo[2,3-b]pyridin-4-yl)morpholine] | < 1000 nM | < 1000 nM | < 1000 nM | low nanomolar affinities | 33 nM | 209 nM | low nanomolar affinities |
